From publication PMC8395767, “Worsening of the Toxic Effects of (±)Cis-4,4′-DMAR Following Its Co-Administration with (±)Trans-4,4′-DMAR: Neuro-Behavioural, Physiological, Immunohistochemical and Metabolic Studies in Mice” (International Journal of Molecular Sciences, 2021)

Key:
[1] = test system: frontal cortex; assay: Histology of brain (haematoxylin/eosin); type: in vivo, mice; settings: 30 mg/kg, compared to controls
Source text: (§1) Following the acute death or the sacrifice of the animals (after 5-h observation period by dislocation of the spine), brains were taken. These were fixed in 4% buffered formalin and then sampled and incorporated into the paraffin (Leica ASP300 processor, Histoline TEC2900 incorporator; Leica Microsystems Srl, Buccinasco, Milano, Italy). Subsequently, the cut (performed with the Leica HistoCore autocut microtome; Leica Microsystems Srl, Buccinasco, Milano, Italy) was designed to create sections with a thickness of 5 µm for each sample.
For histological investigations, the sections were stained with haematoxylin/eosin and then observed under optical microscope (Nikon Eclipse E90i; Nikon, Roma, Italy).

[2] = test system: NOX-2; assay: Immunohistochemistry, frontal cortex: NOX-2; type: in vivo, mice; settings: vs control
Source text: as §1
On 5-µm-thick paraffined […] sections, we evaluated the expression of a panel of markers: heat shock proteins (HSP27, HSP70, HSP90), SMAC/DIABLO, NF-kB, iNOS, NOX-2, NT, 8-OHDG.
We used a detection system composed of a biotinylated secondary antibody and HRP-conjugated streptavidin (4plus HRP Universal Detection, Biocare Medical). […] In the pictures (sections of the frontal cortex; Figure 3, Figure 4 and Figure 5) to evaluate the variation in the expression of markers (Smac, NOX2, iNOS, 8-OHdG, NT, HSP27, HSP70, HSP90) following treatments, the change in intensity of brown colour (staining of the immunohistochemical technique) in the control and treated tissue was measured. Quantification of Smac, NOX2, iNOS, 8-OHdG, NT, HSP27, HSP70 and HSP90 positive-stained areas was performed by the ImageJ software (imagej.nih.gov/ij/ Accessed date 12 May 2020). […]

[3] = test system: DAT; set-up: method as in PMID 25331619; settings: rat brain tissue, lower potency than (±)cis-4,4′-DMAR; cited from earlier work
[4] = test system: NET; set-up: method as in PMID 25331619; settings: rat brain tissue, lower potency than (±)cis-4,4′-DMAR; cited from earlier work

Compound | Histology of the frontal cortex (edema, vacuolization areas) [1] | Immunoreactivity of NOX-2 in the frontal cortex ([2]; 60 mg/kg) | Immunoreactivity of NOX-2 in the frontal cortex ([2]; 10 and 30 mg/kg) | Mode of action at DAT [3] | Mode of action at NET [4]
Cc1ccc(C2OC(N)=NC2C)cc1 (stereo not drawn) [cis-4,4’-DMAR, 4-methyl-5-(4-methylphenyl)-4,5-dihydrooxazol-2-amine] | mild edema | did not affect | reduced | – | –
Cc1ccc(C2OC(N)=NC2C)cc1 (stereo not drawn) [trans-4,4’-DMAR, 4-methyl-5-(4-methylphenyl)-4,5-dihydrooxazol-2-amine] | – | – | – | substrate-type releaser | substrate-type releaser
